Experimental data from patent US20250051324A1, “PARP INHIBITOR, PHARMACEUTICAL COMPOSITION COMPRISING SAME, AND USE THEREOF” (KEYTHERA (SUZHOU) BIO-PHARMACEUTICALS CO., LIMITED, priority 2021, published 2025).

How the values were obtained:
[1] = Liver microsome metabolism assay; settings: CD1, mouse, liver microsomes
[2] = Evaluation of pharmacokinetics in rats; format: in vivo; settings: male, SD, rat, plasma, 1 mg/kg, oral gavage (PO, 1 mpk)
Text: Test Animals: 6-8 Week Old Male SD Rats
Food was restored two hours after dosing.

[3] = Evaluation of pharmacokinetics in mice; settings: male, ICR (CD1), mouse, plasma, po, 10 mg/kg
PARP1 [4] = biological target: T1, PARP1 (Homo sapiens (Human), UniProt P09874); experiment: PARP enzyme activity assay (PARP1 chemiluminescent assay kit); format: biochemical; settings: enzyme inhibitory activity, read-out: PARP-1 IC50
T1 sequence (P09874 whole entry): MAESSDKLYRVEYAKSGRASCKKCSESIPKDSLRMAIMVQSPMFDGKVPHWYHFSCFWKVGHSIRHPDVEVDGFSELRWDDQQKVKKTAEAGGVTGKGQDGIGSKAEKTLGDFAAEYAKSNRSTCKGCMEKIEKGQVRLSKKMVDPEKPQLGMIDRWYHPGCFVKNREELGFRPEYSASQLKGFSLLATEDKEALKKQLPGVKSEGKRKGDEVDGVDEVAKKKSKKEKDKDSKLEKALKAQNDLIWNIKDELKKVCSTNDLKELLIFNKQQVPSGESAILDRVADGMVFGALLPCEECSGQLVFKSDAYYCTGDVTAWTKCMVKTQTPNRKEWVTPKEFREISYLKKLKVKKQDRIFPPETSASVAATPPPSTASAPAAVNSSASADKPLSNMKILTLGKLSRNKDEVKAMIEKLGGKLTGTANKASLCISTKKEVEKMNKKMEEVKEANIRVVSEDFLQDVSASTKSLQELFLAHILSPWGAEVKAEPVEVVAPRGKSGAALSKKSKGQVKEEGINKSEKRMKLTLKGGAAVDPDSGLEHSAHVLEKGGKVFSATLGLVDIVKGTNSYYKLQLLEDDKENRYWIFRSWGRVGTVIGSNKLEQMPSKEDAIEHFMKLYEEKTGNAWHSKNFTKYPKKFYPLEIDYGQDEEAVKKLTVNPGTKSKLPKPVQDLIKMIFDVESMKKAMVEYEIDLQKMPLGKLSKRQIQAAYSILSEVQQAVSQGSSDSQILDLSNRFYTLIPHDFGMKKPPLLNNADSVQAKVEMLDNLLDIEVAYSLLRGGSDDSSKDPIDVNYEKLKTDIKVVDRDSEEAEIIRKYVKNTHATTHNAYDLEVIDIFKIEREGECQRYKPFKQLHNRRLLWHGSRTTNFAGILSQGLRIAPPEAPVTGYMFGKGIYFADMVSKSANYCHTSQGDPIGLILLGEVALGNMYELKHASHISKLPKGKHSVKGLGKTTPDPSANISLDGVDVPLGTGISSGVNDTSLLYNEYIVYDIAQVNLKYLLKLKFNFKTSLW
Text: Experimental Materials: The PARP1 assay kit was purchased from BPS Bioscience, USA, specifically the 384-well chemiluminescent assay kit (Catalog No.: #80551).
Experimental Principle: PARP can catalyze the transfer of ADP-ribose residues from NAD+ to target substrates, thereby modifying proteins through ribosylation. This experiment measures PARP1 enzyme activity by detecting the poly(ADP-ribosylation) of histones by PARP1.
Preparation of Reagents and Test Compounds: The 10× assay buffer included in the kit was diluted to 1× with distilled water. The test compound (stock concentration of 10 mM) was diluted to 10 μM with a DMSO solution and then serially diluted in a 1:3 ratio. The serially diluted compounds were further diluted 10-fold with the 1× assay buffer.
Experimental Method: The procedure was carried out according to the kit's instructions:
1. The 5× histone mixture was diluted to 1× with PBS, and 25 μL was added to each well of a 384-well plate, incubating overnight at 4° C.
2. After incubation, 100 μL of PBST (0.05% Tween 20) was added to each well for washing, repeated three times. Then, 100 μL of blocking solution was added to each well and incubated at room temperature for 90 minutes.
3. After incubation, the wells were washed three times with PBST, and then 1.25 μL of 10× assay buffer, 1.25 μL of 10×PARP assay mixture, 2.5 μL of activation DNA (5×), and 7.5 μL of distilled water were added to each well.
4. […] The positive control group and the negative control group were added with 1× assay buffer containing the same concentration of DMSO.
5. Next, 10 μL of 2.5 ng/μL PARP1 enzyme was added to the test compound and positive control groups, while 10 μL of 1× assay buffer was added to the negative control group, and the mixture was incubated at room temperature for 60 minutes.
6. Streptavidin-HRP was diluted 1:50 with the blocking solution. After incubation, the plate was washed three times with PBST, and 25 μL of the diluted streptavidin-HRP solution was added to each well, incubating at room temperature for 30 minutes.
7. After incubation, the plate was washed three times with PBST, and 50 μL of the mixed substrate A and substrate B in equal volumes was added. The luminescence signal was immediately read on a Synergy HTX multi-mode reader.
(§1) 8. Data analysis was performed using GraphPad Prism 8.0 software. The inhibition rate %=100*(average luminescence signal of the positive control group−luminescence signal of the compound)/(average luminescence signal of the positive control group−average luminescence signal of the negative control group). The IC50 value was obtained by plotting the logarithm of the compound concentration against the percentage inhibition rate.

[5] = tested on: MDA-MB-436 breast cancer cells; experiment: Cell proliferation assay, MDA-MB-436; format: cell-based; settings: Homo sapiens, MDA-MB-436, 168 h; proliferation, 7 days; read-out: MDA-MB-436 Cell IC50
Method: Experimental Materials: MDA-MB-436 or UWB1.289 cell lines were purchased from Cobioer Biosciences Co. Ltd. (Nanjing, China). The STR identification results were a complete match, and mycoplasma testing was negative. MDA-MB-436 cells were cultured in DMEM complete medium containing 10% fetal bovine serum, 1% penicillin-streptomycin, 1% insulin, and 16 μg/mL glutathione; UWB1.289 cells were cultured in RMPI1640 complete medium containing 10% fetal bovine serum and 1% penicillin-streptomycin.
1. MDA-MB-436 or UWB1.289 cells were cultured in the aforementioned medium (culture conditions: 37° C., 5.0% CO2 in air) until they reached the logarithmic growth phase. The cells were then digested with trypsin containing 0.25% EDTA, centrifuged at 1000 rpm, and the supernatant was discarded. Cell culture medium was added, and the cell suspension was adjusted to 2×10^4/mL after counting. 135 μL of the cell suspension per well was taken and cultured in a 96-well cell culture plate for 16 hours (culture conditions: 37° C., 5.0% CO2 in air).
2. The test compounds, stored at a concentration of 10 mM, were diluted 2.5 times with DMSO and then serially diluted in a 1:3 gradient (9 gradients). The gradient-diluted samples were further diluted 40 times with serum-free medium, and 15 μL of each was added to the 96-well cell culture plate. The positive control group received serum-free medium containing the same concentration of DMSO, and the negative control group received medium without cells. The cells were then cultured for an additional 7 days.
3. After the culture period, the cell culture plate was placed at room temperature for 30 minutes. Then, 100 μL of CellCounting-Lite 2.0 reagent (Vazyme, #DD1101) was added to each well, mixed thoroughly, and incubated in the dark at room temperature for 10 minutes. The luminescence signal was read using a Synergy HTX multi-mode reader.
as §1, with “4. Data” for “8. Data”, “rate (%) was calculated as 100*(average” for “rate %=100*(average”

PARP1 [6] = biological target: T1, PARP1; experiment: PARP1 trapping assay; format: biochemical; settings: read-out: Inhibitory Effect on PARP1 Trapping IC50
Method: [table] […] 1. A 4× enzyme reaction mixture, comprising PARP1, PARP2, and GST-Tb antibody, was prepared with the buffer and 4 μL of the enzyme reaction mixture was added to a 384-well plate. 2. A 4×PARP1 and PARP2 probe reaction mixture was prepared with the buffer and 4 μL of the probe reaction mixture was added to the 384-well plate. 3. A series of gradient-diluted compounds were prepared and 4 μL of the diluted compounds were added to the 384-well plate, and incubated at room temperature for 45 minutes. 4. After incubation, 4 μL of 4×NAD reaction mixture was added to the 384-well plate and incubated at room temperature for 10 minutes. 5. After incubation, the plate was read using a plate reader. 6. Data Analysis: The percentage inhibition rate was calculated as follows: Inhibition Rate (%)=(Reading of Compound Group−Reading of Blank Group)/(Reading of Vehicle Control Group−Reading of Blank Group).

[7] = tested on: human breast cancer (MDA-MB-436) cell line; experiment: Mouse CDX tumor model (MDA-MB-436 subcutaneous xenograft); format: in vivo
Method: Test Objective: The efficacy of the compounds was evaluated in a subcutaneous xenograft model of human breast cancer (MDA-MB-436) cell line in mice.
(§2) Test Compounds: Olaparib, Compound 1
Experimental Animals: Female NOD SCID mice, 4-5 weeks old, purchased from Nanjing Jicui.
(§3) Housing and Management: The experimental animals were housed in SPF-grade, temperature- and humidity-controlled clean rooms, using individually ventilated cages (IVC) with no more than 5 mice per cage. Temperature/humidity was controlled within the range of (23±3)° C./40-70%. Feed and water: SPF-grade mouse feed, sterilized by cobalt-60 irradiation. Drinking water was ultrafiltered and autoclaved. Animals had free access to sterile food and water. Animal identification: ear tags.
Tumor Cell Line and Tumor Model: MDA-MB-436 cells (Nanjing Cobioer Biotechnology Co., Ltd., Cat. No: CBP60385) were cultured in vitro in DMEM complete medium containing 10% fetal bovine serum, 1% penicillin-streptomycin, 1% insulin, and 16 μg/mL glutathione (37° C., 5% CO2). When the cells met the requirements for the in vivo efficacy experiment, they were collected, counted, and prepared into a PBS cell suspension. Each mouse (5-6 weeks old NOD SCID) was inoculated subcutaneously on the right flank with 0.9×10^7 cells. Tumor volume was measured and calculated three times a week after inoculation. When the tumor volume reached approximately 200-300 mm^3, the mice were grouped for administration.
Experimental Groups: The experiment was divided into the following groups: vehicle control group; Olaparib 100 mg/kg group; Compound 1 0.1 mg/kg group; Compound 1 0.3 mg/kg group; and Compound 1 1.0 mg/kg group. All groups were administered orally by gavage once daily. […] After 28 days of administration, the tumor volume was used to calculate the tumor growth inhibition rate (TGI %), and the tumor inhibition effect was statistically analyzed using software such as Excel, etc.

[8] = tested on: peripheral blood reticulocytes; experiment: Effect of compound on rat reticulocytes; format: in vivo; settings: 4 days
Method: Test Objective: The effect of the compound on peripheral blood reticulocytes was evaluated to determine its impact on bone marrow hematopoietic function.
as §2
as §3, with “Experimental Animals: Male Sprague Dawley rats were purchased from Beijing Charles River Laboratory Animal Technology Co., Ltd. Housing” for “Housing”, “rats” for “mice”, “rat” for “mouse”
Experimental Method: The experiment was divided into the following 5 groups: vehicle control group; Olaparib 100 mg/kg; Compound 1 0.1 mg/kg; Compound 1 0.3 mg/kg; and Compound 1 1.0 mg/kg. All treatments were administered orally by gavage once daily for 4 days. Blood samples were collected before and after treatment to measure peripheral blood reticulocyte counts.

Row | microsomal CLint at 1 µM [1] | AUC(0-inf) [3] | Cmax [3] | half-life [3] | IC50 [5] | IC50 (PARP1 [6]) | Structure (SMILES) | also measured
1 | 1.23 µL/min/mg | 357 µg·h/mL | 37300 ng/mL | 8.25 h |  |  | CCc1cc2ncc(CN3CCN(c4ccc(C(=O)NC)nc4)CC3)cc2[nH]c1=O [AZD5305, reference compound] | AUC(0-inf) [2]: 5.6 µg·h/mL; Cmax [2]: 1400 ng/mL; half-life [2]: 4.09 h
2 | 0.21 µL/min/mg | 1360 µg·h/mL | 49900 ng/mL | 20.2 h | 7.26 nM | 4.33 nM | CNC(=O)c1ccc(N2CCN([C@H](C)c3cnc4c(C)c(C(F)(F)F)c(=O)[nH]c4c3)CC2)cn1 [Compound 90, (R)—N-methyl-5-(4-(1-(8-methyl-6-oxo-7-(trifluoromethyl)-5,6-dihydro-1,5-naphthyridin-3-yl)ethyl)piperazin-1-yl)picolinamide] | 
3 | 0.3 µL/min/mg |  |  |  | 3.24 nM | 2.9 nM | CNC(=O)c1ccc(N2CCN([C@@H](C)c3cnc4c(C)c(C(F)(F)F)c(=O)[nH]c4c3)CC2)cn1 [Compound 91, (S)—N-methyl-5-(4-(1-(8-methyl-6-oxo-7-(trifluoromethyl)-5,6-dihydro-1,5-naphthyridin-3-yl)ethyl)piperazin-1-yl)picolinamide] | 

Continued, molecule first:

Row | Structure (SMILES) | microsomal CLint at 1 µM [1] | AUC(0-inf) [3] | Cmax [3] | half-life [3] | IC50 [5] | IC50 (PARP1 [6]) | also measured
4 | Cc1c(C(F)(F)F)c(=O)[nH]c2cc(CN3CCN(c4cc5c(cn4)C(=O)NC5)CC3)cnc12 [Compound 15, 4-methyl-7-((4-(3-oxo-2,3-dihydro-1H-pyrrolo[3,4-c]pyridin-6-yl)piperazin-1-yl)methyl)-3-(trifluoromethyl)-1,5-naphthyridin-2(1H)-one] | 0.75 µL/min/mg |  |  |  |  |  | IC50 (PARP1 [4]): 3.48 nM
5 | CNC(=O)c1ccc(N2CCN(C(C)c3cnc4c(C)c(C(F)(F)F)c(=O)[nH]c4c3)CC2)cn1 (stereo not drawn) [Compound 24, N-methyl-5-(4-(1-(8-methyl-6-oxo-7-(trifluoromethyl)-5,6-dihydro-1,5-naphthyridin-3-yl)ethyl)piperazin-1-yl)picolinamide] | 0.4 µL/min/mg | 1100 µg·h/mL | 26300 ng/mL | 28.7 h | 4.32 nM |  | 
6 | CNC(=O)c1ccc(N2CCN(Cc3cc4[nH]c(=O)c(C(F)(F)F)c(C)c4cn3)[C@H](C)C2)cn1 [Compound 87, (R)—N-methyl-5-(3-methyl-4-((4-methyl-2-oxo-3-(trifluoromethyl)-1,2-dihydro-1,6-naphthyridin-7-yl)methyl)piperazin-1-yl)picolinamide] | 1.01 µL/min/mg |  |  |  | 5.73 nM | 2.57 nM | 
7 | CNC(=O)c1ccc(N2CCN(Cc3cc4[nH]c(=O)c(C(F)(F)F)c(C)c4cn3)C[C@H]2C)cn1 [Compound 88, (R)—N-methyl-5-(2-methyl-4-((4-methyl-2-oxo-3-(trifluoromethyl)-1,2-dihydro-1,6-naphthyridin-7-yl)methyl)piperazin-1-yl)picolinamide] | 0.84 µL/min/mg | 1650 µg·h/mL | 38200 ng/mL | 26.3 h | 5.75 nM | 1.55 nM | 
8 | O=C(c1cc(Cc2n[nH]c(=O)c3ccccc23)ccc1F)N1CCN(C(=O)C2CC2)CC1 [Olaparib, reference compound] |  |  |  |  |  |  | Tumor Growth Inhibition Rate (TGI) ([7]; 100 mg/kg oral once daily, 28 days): 89%; Body weight vs vehicle control group ([7]; MDA-MB-436 model, all treatment groups): no significant difference; Reticulocyte Inhibition Rate ([8]; 100 mg/kg oral once daily): 91.6%; Effect on peripheral blood reticulocytes (in words) ([8]; 100 mg/kg, p<0.01): significantly reduced
